Experimental data taken from patent publication US7795226B2, “Control of radiation injury” (Biotempt B.V., priority 2006, dated 2010).
Several values for one entry are separate records, joined by “and”; a condition that tells them apart may be missing. Identical values can stand only once.

Assays:
[1] = tested on: LPS (E. coli 026:B6)-induced septic shock in BALB/c mice; experiment: LPS-induced septic shock, single dose of peptide; format: in vivo
Experimental: Mice used in sepsis or septic shock experiments: Female BALB/c mice of eight to twelve weeks of age were used for all experiments. The animals were bred in our facility under specific pathogen-free conditions according to the protocols described in the […] of European Laboratory Animal Science Associations (FELASA) Working group on Animal Health (Laboratory Animals 28:1-24, 1994).
Injection protocols: For the endotoxin model, BALB/c mice were injected i.p. with 150-300 μg LPS (E. coli 026:B6; Difco Lab., Detroit, Mich., USA). Control groups were treated with PBS i.p. only. To test the effect of peptides, they were dissolved in PBS and injected i.p. at predetermined points in time after LPS treatment.
Mice were scored for sickness severity using the following measurement scheme: • 0 No abnormalities. • 1 Percolated fur, but no detectable behavior differences compared to normal mice. • 2 Percolated fur, huddle reflex, responds to stimuli (such as tap on cage), just as active during handling as healthy mouse. • 3 Slower response to tap on cage, passive or docile when handled, but still curious when alone in a new setting. • 4 Lack of curiosity, little or no response to stimuli, quite immobile. • 5 Labored breathing, inability or slow to self-right after being rolled onto back (moribund, sacrificed). • D Dead.
A first set of septic shock experiments were set up to determine which of the peptides LQG, LQGV (SEQ ID NO:117), VLPALP (SEQ ID NO:140), VLPALPQ (SEQ ID NO:143), MTR, MTRV (SEQ ID NO:119), VVC or QVVC (SEQ ID NO:118) were capable of inhibiting lipopolysaccharide (LPS)-induced septic shock in mice by treating mice with a single dose of peptide at two hours after LPS treatment. Peptides were used at 5 mg/kg bodyweight. BALB/c mice were injected i.p. with escalating doses LPS (E. coli 026:B6; Difco Lab., Detroit, Mich. USA), predetermined to be leading to 80 to 100% mortality in 24 to 72 hours.
To test the effect of peptide early in the development of shock, mice were treated at two hours or at 24 hours after treatment with varying doses of LPS by i.p. injection with test peptide at 5 mg/kg bodyweight.

[2] = tested on: spleen cell suspensions stimulated with anti-CD3 antibody; experiment: anti-CD3 induced proliferation of spleen cells from peptide-treated mice; format: cell-based; details: mice treated i.p. 0.5 or 5 mg/kg for one hour; 0, 12, 24 and 48 hours culture
Experimental: FIG. 4: A test on representative oligopeptides for their effect on proliferation during rapid growth of murine monocytes induced by CD3 when avid cell division occurs. Mice (n=5) were treated i.p. PBS, Nak4 (LQGV (SEQ ID NO:117)), Nak47 (LAGV (SEQ ID NO:121)), Nak46 (AQGV (SEQ ID NO:120)) provided by Ansynth BV, The Netherlands, or Nak46* (AQGV (SEQ ID NO:120) provided by Diosynth BV, The Netherlands). Mice were treated with 0.5 mg/kg of 5 mg/kg peptide for one hour, after which, spleens were isolated and spleen cell suspensions were made. Spleen cell suspensions were pooled per group and cultured in vitro (in three-fold) in the presence of PBS or of anti-CD3 antibody and proliferation was tested at 0, 12, 24 and 48 hours after culture.
To further study anti-cell-cycle activity of various oligopeptides, an in vitro experiment in […] of mice stimulated with anti-CD3 was performed. The aim was to test representative oligopeptides for their effect on proliferation during rapid growth induced by CD3 when avid cell division occurs. Mice (n=5) were treated i.p. PBS, Nak4 (LQGV (SEO ID NO:117)), Nak47 (LAGV (SEQ ID NO:121)), Nak46 (AQGV (SEQ ID NO:120)) provided by Ansynth BV, The Netherlands, or Nak46* (AQGV (SEQ ID NO:120) provided by Diosynth BV, The Netherlands). Mice were treated with 0.5 mg/kg or 5 mg/kg peptide for one hour after which spleens were isolated and spleen cell suspensions were made. Spleen cell suspensions were pooled per group and cultured in vitro (in three-fold) in the presence of PBS or of anti-CD3 antibody and proliferation was tested at 0, 12, 24 and 48 hours after culture.

[3] = tested on: cell-cycle marker pCDG and auxin-responsive marker DR5::GUS; experiment: Arabidopsis thaliana seedling cell-cycle analysis (GUS markers); details: for identified as useful peptide for treatment of radiation injury from cell-cycle studies in plants and in vitro proliferation studies: Results from Examples 9 and 10
How it was run: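 Four-day-old Ws-0 seedlings carrying GUS reporters (pCDG, DR5::GUS) were exposed to peptides at 5 mg/ml in PBS pH 8 for four and eight hours. GUS staining with 2 mM X-Gluc for 16 hours; distribution in root, root-hypocotyl transition zone and cotyledons assessed by DIC microscopy after chloral hydrate clearing.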

[4] = LPS dose 7**, single dose 5 mg/kg
[5] = LPS dose 7*, single dose 5 mg/kg
[6] = LPS dose 10, single dose 5 mg/kg
[7] = LPS dose 8, single dose 5 mg/kg
[8] = LPS dose 8, single dose 5 mg/kg, 5 mg/kg
[9] = LPS dose 10, single dose 5 mg/kg, 5 mg/kg

| Substance | mice scored D (dead), effect at t = 48 hours [1, 4] | mice with sickness score 1, effect at t = 48 hours [1, 4] | mice with sickness score 3, effect at t = 24 hours [1, 4] | mice with sickness score 4, effect at t = 24 hours [1, 4] | mice with sickness score 5, effect at t = 24 hours [1, 4] | mice scored D (dead), effect at t = 48 hours [1, 5] | mice with sickness score 3, effect at t = 24 hours [1, 5] | mice with sickness score 4, effect at t = 24 hours [1, 5] | mice with sickness score 4, effect at t = 48 hours [1, 5] | mice with sickness score 5, effect at t = 48 hours [1, 5] | mice scored D (dead), effect at t = 24 hours [1, 6] | mice scored D (dead), effect at t = 48 hours [1, 6] | mice with sickness score 1, effect at t = 48 hours [1, 6] | mice with sickness score 3, effect at t = 24 hours [1, 6] | mice with sickness score 4, effect at t = 24 hours [1, 6] | mice with sickness score 5, effect at t = 48 hours [1, 6] | mice with sickness score 3, effect at t = 24 hours [1, 7] | identified as useful peptide for treatment of radiation injury from cell-cycle studies in plants and in vitro proliferation studies [3] | mice with sickness score 5, effect at t = 24 hours [1, 9] | other results |
| --- | --- | --- | --- | --- | --- | --- | --- | --- | --- | --- | --- | --- | --- | --- | --- | --- | --- | --- | --- | --- |
| MTR | 3 | 3 | 3 | 1 | 1 | 1 | 3 | 3 | 2 | 3 | 1 | 3 | 2 | 2 | 3 | 1 | – | – | – | mice with sickness score 2, effect at t = 24 hours [1, 4]: 1 |
| LQGV | – | 6 | – | – | – | – | – | – | – | – | – | 1 | – | 1 | 1 | – | 1 | useful | – | protective effect against LPS-induced sepsis (in words) ([1]; 5 mg/kg i.p.): marked protective effect; mice with sickness score 1, effect at t = 24 hours [1, 4]: 6; mice with sickness score 1, effect at t = 24 hours [1, 5]: 2; mice with sickness score 1, effect at t = 48 hours [1, 5]: 6; mice with sickness score 2, effect at t = 24 hours [1, 5]: 4; mice with sickness score 0, effect at t = 48 hours [1, 7]: 4; mice with sickness score 1, effect at t = 24 hours [1, 7]: 3; mice with sickness score 2, effect at t = 48 hours [1, 7]: 1; mice with sickness score 2, effect at t = 24 hours [1, 8]: 5 and 3; mice with sickness score 1, effect at t = 24 hours [1, 6]: 2; mice with sickness score 2, effect at t = 48 hours [1, 6]: 1; mice with sickness score 1, effect at t = 48 hours [1, 9]: 6 and 4; proliferation of anti-CD3 stimulated spleen cells (in words) [2]: reduction of proliferation; effect on cell-cycle marker (pCDG) and auxin-responsive marker (DR5::GUS) (in words) ([3]; seedlings incubated four and eight hours, 5 mg/ml peptide solution): clear effect on the tested markers |
| MTRV | 2 | 3 | 2 | 3 | 1 | – | 3 | 3 | – | 2 | – | – | 2 | – | – | 1 | – | useful | 1 and 2 | mice with sickness score 3, effect at t = 48 hours [1, 4]: 1; mice with sickness score 2, effect at t = 48 hours [1, 5]: 4; mice with sickness score 3, effect at t = 48 hours [1, 6]: 1; mice with sickness score 2, effect at t = 24 hours [1, 9]: 2 and 1; mice with sickness score 3, effect at t = 24 hours [1, 9]: 1 and 2; mice with sickness score 4, effect at t = 24 hours [1, 9]: 2 and 1 |
| VLPALPQ (septamer peptide) | 6 | – | – | – | 5 | 2 | 3 | 3 | 2 | 2 | 3 | 5 | – | 1 | 2 | 1 | 3 | – | 4 and 2 | mice scored D (dead), effect at t = 24 hours [1, 4]: 1; mice scored D (dead), effect at t = 24 hours [1, 7]: 2; mice scored D (dead), effect at t = 48 hours [1, 7]: 6; mice with sickness score 2, effect at t = 24 hours [1, 7]: 1; mice with sickness score 3, effect at t = 48 hours [1, 7]: 1; mice with sickness score 4, effect at t = 48 hours [1, 7]: 3; mice with sickness score 5, effect at t = 24 hours [1, 7]: 3; mice with sickness score 5, effect at t = 48 hours [1, 7]: 2; mice with sickness score 4, effect at t = 24 hours [1, 8]: 2 and 1 |
